Results on one compound are retold here after patent publication US20180140694A1, “DOSAGE REGIMEN FOR HIV VACCINE” (priority 2015, published 2018).

Data set [1] relates to Histone H3 acetylation in lymphocytes. Kind of data set: Histone H3 acetylation in lymphocytes by flow cytometry (REDUC). In kind it is in vivo, human. To be noted: REDUC Part A, following each romidepsin administration, 5 mg/m^2. As for the experimental part:
Histone H3 acetylation: Measured in lymphocytes using flow cytometry with intracellular cytokine stain on fresh isolated PBMCs.
Histone H3 acetylation was measured in lymphocytes using flow cytometry with intracellular cytokine staining on fresh isolated PBMCs. Freshly isolated PBMC's were fixated, permeabilised and stained with acetylation-specific antibodies, providing the possibility to evaluate epigenetic modifications on Histones (Rigby L, Muscat A, Ashley D, Algar E. Epigenetics 2012; 7(8):875-882). Briefly, PBMCs (1×10^6) were resuspended in 3 ml ice-cold PBS/1% FBS and centrifuged, then vortexed to dissolve pellet and fixative added, 100 μl 2% PFA (ice-cold), vortexed briefly and incubated on ice for 15 min. Cells were then washed in 4 ml PBS, resuspended in 200 μl PBS and stored at 4° C. until staining. Samples were washed with 3 ml FACS buffer and vortexed to dissolve cell pellet prior to adding 100 μl 0.2% Triton X-100, vortexed briefly and incubated for 10 min. at room temperature (RT). Samples were then washed with FACS buffer, 600 μl Block (PBS/10% FBS) was added, sample vortexed to resuspend cell pellet and incubated for 20 min at RT. […] Finally, samples were washed with FACS buffer and resuspended in 80 μl PBS and analyzed by FACS (50 000 events, anti-acetyl histone H3 Median Fluorescence Intensity, MFI, calculated by subtracting background MFI from isotype control).
In general terms: In flow cytometry, cells or beads pass a laser one at a time.

The test system of data set [2] is HIV-1 transcription in CD4+ T cells. Kind of data set: Cell associated unspliced HIV-1 RNA in CD4+ T cells by droplet digital PCR (REDUC). In kind it is in vivo. To be noted: REDUC Part A. Here is the method:
Unspliced HIV-1 RNA (copies per 10^6 CD4+ T cells): HIV transcription was measured as copies of cell-associated unspliced HIV-1 RNA/106 CD4+ T cells using digital droplet PCR.
HIV transcription was measured as copies of cell-associated unspliced HIV-1 RNA/106 CD4+ T cells using digital droplet PCR. CD4+ T-cells were isolated from PBMCs using Miltenyi Biotec negative bead separation kit (CD4 T cell isolation, #130-096-533) as described with LD separation columns, lysed (Lysis buffer from Qiagen DNA/RNA extraction kit), and stored ad −80° C. until extraction of RNA and DNA (Allprep isolation kit, Qiagen). Reverse transcription, amplification and quantitation of cell-associated unspliced HIV RNA from HIV patients was performed as follows. In summary, HIV unspliced RNA was detected on the BioRad QX100 droplet digital platform using a defined primer/probe set and related to total cell input by quantitation of the IPO8 (Importin 8) and TBP (Tata Binding Protein) gene transcription. […] After cycling droplets were subsequently read automatically by the QX100 droplet reader (BioRad) and the data was analyzed with the QuantaSoft™ analysis software (BioRad). On average, the six HIV replicates generated 80,000-98,000 droplets to be analyzed per time point.

For data set [3], the system named is Plasma HIV-1 RNA. As to conditions: REDUC Part A. As for the experimental part:
Plasma HIV RNA, quantitative viral load: Measured by Roche VL (routine clinical assay).
Plasma HIV RNA, quantitative viral load, was measured by Cobas® TaqMan® HIV-1 Test, v2.0 (Roche) according the manufacturer's instruction (routine clinical assay). The lower limit of quantification for this assay is 20 copies HIV-1 RNA/mL, but it provides a qualitative assessment below this.

For data set [4], the system named is Plasma HIV-1 RNA. The data set can be described thus: Plasma HIV-1 RNA by transcription mediated amplification (NAT screen, PROCLEIX ULTRIO Plus). To be noted: REDUC Part A. In kind it is in vivo. Here is the method:
Plasma HIV-1 RNA detection by NAT screen: Measured by a transcription mediated amplification (TMA)-based methodology, usually referred to as a nucleic acid test (NAT)-screen (PROCLEIX ULTRIO Plus, Genprobe).
Plasma HIV RNA, quantitative viral load, was measured by Cobas® TaqMan® HIV-1 Test, v2.0 (Roche) according the manufacturer's instruction (routine clinical assay). The lower limit of quantification for this assay is 20 copies HIV-1 RNA/mL, but it provides a qualitative assessment below this. Plasma HIV-1 RNA was also measured by a transcription mediated amplification (TMA)-based methodology, usually referred to as a nucleic acid test (NAT)-screen (PROCLEIX ULTRIO Plus, Genprobe), according to manufacturer's instructions.

The test system of data set [5] is latent HIV-1 reservoir in CD4+ T cells. The data set can be described thus: Total HIV-1 DNA per 10^6 CD4+ T cells by droplet digital PCR (REDUC). In kind it is in vivo. To be noted: REDUC Part A, romidepsin infusions without preceding vaccination. An excerpt: Total HIV-1 DNA (copies per 10^6 CD4+ T cells): Total HIV DNA quantifies integrated and non-integrated DNA as well as latent and defective virus. There is a strong correlation between total HIV DNA and integrated HIV DNA in patients on cART and therefore cell-associated HIV DNA is likely to be a good surrogate marker of the total number of latently infected cells [Koelsch 2008].
For HIV-1 DNA quantifications, CD4 T cells were isolated using a CD4+ T Cell Isolation Kit Miltenyi biotec, cat no 130-096-533) on LS columns (Miltenyi biotec, cat no 130-042-401). After CD4 T isolation, cells were resuspended in lysis buffer and digested as previously described [Chomont, 2009 Nat Med, 15(8): 893-900]. Cell lysates were used directly for HIV-1 DNA quantifications using the QX100™ Droplet Digital™ PCR system (Bio-Rad) to determine the absolute levels of total HIV-1 DNA per 106 CD4+ T cells [Strain et al 2013 PLOS One].

The nature of data set [6]: Safety and tolerability evaluation in REDUC trial (adverse events). In kind it is in vivo, human. An excerpt: The primary endpoint of Part A was safety and tolerability; evaluation as measured by adverse events (AE), adverse reactions (AR), serious adverse events (SAE), serious adverse reactions (SAR), serious unexpected adverse reactions (SUSAR).
The primary endpoint of Part B was firstly, safety and tolerability evaluation as measured by adverse events (AE), adverse reactions (AR), serious adverse events (SAE), serious adverse reactions (SAR), serious unexpected adverse reactions (SUSAR) and dose-limiting toxicity.

Where [7] appears, read: REDUC Part A, romidepsin 5 mg/m^2, 6 patients.

For the compound `C/C=C1\NC(=O)[C@H]2CSSCC/C=C/[C@H](CC(=O)N[C@H](C(C)C)C(=O)N2)OC(=O)[C@H](C(C)C)NC1=O` [romidepsin, (1S,4S,7Z,10S,16E,21R)-7-ethylidene-4,21-bis(1-methylethyl)-2-oxa-12,13-dithia-5,8,20,23-tetraazabicyclo[8.7.6] tricos-16-ene-3,6,9,19,22-pentone], the “Lymphocyte histone H3 acetylation, maximum fold range relative to baseline” value in data set [1] is on record as 3.7-7.7 fold. Moreover, in data set [2], the “cell-associated un-spliced HIV RNA as a result of romidepsin infusion” value is “significantly increased”. The “cell-associated un-spliced HIV-1 RNA, fold range from baseline” value in data set [2] (after third infusion) is 2.4-5.0 fold. Besides, the “extracellular HIV RNA as a result of romidepsin infusion” value in the data set with Plasma HIV-1 RNA [3] was “significantly increased”. Also, the “patients with plasma HIV-1 RNA increased to readily quantifiable levels” value with Plasma HIV-1 RNA [3] (multiple post-infusion time-points) was 5 of 6 patients. For the same compound, in the data set on Plasma HIV-1 RNA [3] (range following the second infusion, <20 copies/mL at baseline), the “plasma HIV-1 RNA” value is listed as 46-103 copies/mL. In addition, the “Plasma HIV-1 RNA detection by transcription-mediated amplification assay, post-infusion versus baseline” value in the data set on Plasma HIV-1 RNA [4] is on record as “detected more frequently”. In addition, the “size of the latent reservoir” value in data set [5] is “not affected”. Also, in data set [6] (setting [7]), the adverse event grade entry is “most adverse events (AEs) were of grade 1” and the serious adverse events entry was “No serious adverse events were observed”. Besides, the “adverse events considered related to the agent” value in data set [6] (REDUC Part B, of 141 in total) stood at 57 adverse events.
